Patent publication US20210395235A1, “COMPOUND AS TGF-beta R1 INHIBITOR AND APPLICATION THEREOF” (NANJING SANHOME PHARMACEUTICAL CO., LTD., priority 2018, published 2021)

Key:
[1] = tested on: TGFβ-ALK5-SMAD2/3 signaling pathway in Luc-Smad2/3-NIH3T3 cells; test: In vitro cell luciferase assay in Luc-Smad2/3-NIH3T3 cells stimulated with TGFβ1; assay type: cell-based; conditions: Mus musculus; TGFβ1 4 ng/mL, 2% FBS medium, luciferase chemiluminescence
Method: Test compounds: For the compounds of the present disclosure prepared in the above examples, each compound was prepared into 4 mM using DMSO. Then, a 4-fold serial dilution was made to obtain 20000.00 nM, 5000.00 nM, 1250.00 nM, 312.5 nM, 78.125 nM, 19.53 nM, 4.88 nM and 1.22 nM successively.
Luc-Smad2/3-NIH3T3 mouse fibroblasts (engineered to overexpress SMAD2,3-responsive promoter) were provided by a laboratory of China Pharmaceutical University.
Reagents: DMEM, purchased from Invitrogen, US; FBS, purchased from Invitrogen, US; DMSO, purchased from Sigma, US; Glo Lysis Buffer, purchased from Progema, US; Bright-Glo Luciferase assay system, purchased from Promega, US; and TGFβ, purchased from PeproTech, US.
Instruments: MD SpectraMaX M3 multifunctional enzyme reader, purchased from Molecular Devices, US.
Cell recovery: The cells were dissolved by placing in a […] water bath, then transferred to a 15 mL of pre-warmed culture medium, and centrifuged at 1000 rpm for 5 minutes. After the culture medium was discarded, the cells were resuspend in 15 mL of fresh culture medium, transferred to a 10 cm dish, and placed in an incubator at 37° C. with 5% CO2 for culture. After 24 hours, the culture medium for the cells was changed with a fresh culture medium.
Cell passage: The recovered cells were transferred to a 50 mL sterile centrifuge tube and centrifuged at 1000 rpm for 5 minutes. The culture medium was discarded. The evenly dispersed cells was counted, and adjusted to an appropriate cell concentration of 15 mL of fresh culture medium, added to a 10 cm dish, and placed in an incubator at 37° C. with 5% CO2 for culture.
Luc-Smad2/3-NIH3T3 cells were cultured normally in a 10 cm culture dish until the confluence reached 80%-90%. After digestion, they were collected in a 15 mL centrifuge tube, centrifuged at 1000×g for 5 minutes to remove the supernatant, and resuspended with 1 mL of medium, then diluted 10 times and counted. The cells was diluted according to the results from the count, and transferred into a 96-well plate at 4×10^3/cells per well (100 μl of resuspended cells was added in each well).
1-2 mg of the drug was weighed (weighed in advance), and prepared into a 4 mM stock solution using DMSO. After 24 hours, the culture medium was removed. The drug was diluted with 2% FBS culture medium. 100 μl of the 1× drug solution was added to make the final concentration of the drug to be 20000.00 nM, 5000.00 nM, 1250.00 nM, 312.5 nM, 78.125 nM, 19.53 nM, 4.88 nM, and 1.22 nM. TGFβ1 was present in each well at a final concentration of 4 ng/mL, and diluted with 2% FBS culture medium together with the compounds.
The Glo Lysis Buffer and the Bright-glo luciferase assay system as well as the cells were equilibrated to room temperature. After the cell supernatant was removed, the cells were dissolved evenly by adding 100 μl of the Glo Lysis Buffer to each well with shaking slowly, and lysed at room temperature for 5 minutes. After that, to each well, 100 μl of the Bright-glo luciferase assay system was added to incubate the cells for 5 minute at room temperature with shaking for 2 minutes. Then, 180 μl of the supernatant was transferred to a white bottom 96-well plate to detect chemiluminescence signal. The detection condition was 1 s.
2.3 Data processing: Graphpad Prism 5 software was used to perform nonlinear curve fitting and data analysis to obtain IC50 by fitting.

ALK5 = biological target: T1, ALK5 (Homo sapiens, UniProt P36897); test: In vitro activity against ALK5 kinase (ADP-Glo Kinase Assay); assay type: biochemical; conditions: 28° C. 120 minutes
T1 construct: purchased Carna 09-141
T1 sequence (P36897 162-503 limits assumed): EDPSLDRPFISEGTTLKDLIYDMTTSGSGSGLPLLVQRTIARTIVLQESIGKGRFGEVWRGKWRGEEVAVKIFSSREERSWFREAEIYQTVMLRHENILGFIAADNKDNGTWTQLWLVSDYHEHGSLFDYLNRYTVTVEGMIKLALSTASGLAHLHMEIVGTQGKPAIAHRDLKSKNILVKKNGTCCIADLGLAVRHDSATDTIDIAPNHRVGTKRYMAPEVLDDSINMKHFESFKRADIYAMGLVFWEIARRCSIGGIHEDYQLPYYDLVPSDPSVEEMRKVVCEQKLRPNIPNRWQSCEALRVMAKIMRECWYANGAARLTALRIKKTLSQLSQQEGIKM
Method: For the compounds of the present disclosure prepared in the above examples, each compound was prepared into 10 mM with DMSO, and then diluted to 3.333 μM, 1.111 μM, 370 nM, 123 nM, 41 nM, 14 nM, 4.6 nM, 1.5 nM and 0.5 nM successively.
Reagents: ALK5, Cat. No. 09-141, purchased from Carna; p38α, Cat. No. 04-152, purchased from the Carna; TGFβR1 peptides, Cat. No. T36-58, purchased from SignalChem; dimethyl sulfoxide (DMSO), purchased from Sigma, US; EDTA, purchased from Sigma, US; and ADP-Glo Kinase Assay, Cat. No. v9102/3, 1×Kinase buffer (40 mM Tris, pH7.5, 0.10% BSA, 20 mM MgCl2, 1 mM DTT), purchased from Promega, and prepared immediately before use.
2.2.1.1 Preparation of 50-fold compounds: The compounds were prepared into 500 μM, 50-fold concentration as the final concentration 10 μM for detecting the compounds, which was performed as following: into a second well of a 96-well plate, 95 μl of 100% DMSO was added, and then 5 μl of the 10 mM compound solution was added, to prepare a […] compound solution; into other wells, 60 μl of 100% DMSO was added; from the second well, 30 μl of the compound was drawn out and added into a third well; such 3-fold serial dilution was continued successively until 10 dilutions of concentration were made.
The kinase was added to a 1× kinase buffer, to form a 2× enzyme solution. 2.5 μl of the 2× enzyme solution was added to a 384-well reaction plate which already contained 100 nl of 100% DMSO-dissolved compound, to incubate at room temperature for 10 minutes.
FAM labeled peptides and ATP were added to the 1× kinase buffer, to form a 2× substrate solution. 2.5 μl of the 2× substrate solution was added to the 384-well reaction plate.
The 384-well plate was incubated at 28° C. for 120 minutes.
2.5.1 An ADP-Glo reagent was equilibrated to room temperature.
2.5.2 5 μl of the reaction solution was transferred into a reaction well at another new 384-well plate.
2.5.3 5 μl of the ADP-Glo reagent was transferred into the reaction well at the 384-well plate to stop the reaction.
2.5.4 An incubation was performed at 28° C. for 120 minutes.
2.5.5 10 μl of a kinase detection reagent was transferred into each reaction well, shaken for 1 minute, and was allowed to stand for 30 minutes at room temperature.
The luminescence value of the sample was read from Envision.
2.7.1 Luminescence reading data were copied from the Envision program.
2.7.2 The values of the luminescence reading were converted into the percent inhibition by the following formula.
Percent inhibition=(max−sample RLU)/(max−min)×100, where “min” stands for the fluorescence reading of the control sample with no enzyme added to the reaction; and “max” stands for the fluorescence reading of the sample with DMSO added as a control.
2.7.3 The date were imported into MS Excel and subjected to curve fitting using XLFit excel add-in version 5.4.0.8 and a fitting formula: Y=Bottom+(Top−Bottom)/(1+(IC50/X)^HillSlope).

| SMILES | IC50 [1] [nM] | IC50 (ALK5) [nM] |
| --- | --- | --- |
| CC(C)(O)c1cc(Nc2ccc3c(Oc4cn(C5CC5)nc4C4CCOCC4)ccnc3c2)ccn1 [Example 1, 2-(4-((4-((1-cyclopropyl-3-(tetrahydro-2H-pyran-4-yl)-1H-pyrazol-4-yl)oxy)quinolin-7-yl)amino)pyridin-2-yl)propan-2-ol] | 200 | 120 |
| c1cc(Oc2cn(C3CC3)nc2C2CCOCC2)c2ccc(N3CCOCC3)cc2n1 [Example 2, 4-(4-((1-cyclopropyl-3-(tetrahydro-2H-pyran-4-yl)-1H-pyrazol-4-yl)oxy)quinolin-7-yl)morpholine] | 150 | 98 |
| FC(F)(F)c1nnc2n1CCN(c1ccc3c(Oc4cn(C5CC5)nc4C4CCOCC4)ccnc3c1)C2 [Example 3, 4-((1-cyclopropyl-3-(tetrahydro-2H-pyran-4-yl)-1H-pyrazol-4-yl)oxy)-7-(3-(trifluoromethyl)-5,6-dihydro-[1,2,4]triazolo[4,3-a]pyrazin-7(8H)-yl)quinoline] | 102 | 80 |
| O=S1(=O)CCN(c2ccc3c(Oc4cn(C5CC5)nc4C4CCOCC4)ccnc3c2)CC1 [Example 4, 4-(4-((1-cyclopropyl-3-(tetrahydro-2H-pyran-4-yl)-1H-pyrazol-4-yl)oxy)quinolin-7-yl)thiomorpholine-1,1-dioxide] | 140 | 250 |
| CC1(O)CCN(c2ccc3c(Oc4cn(C5CC5)nc4C4CCOCC4)ccnc3c2)CC1 [Example 5, 1-(4-((1-cyclopropyl-3-(tetrahydro-2H-pyran-4-yl)-1H-pyrazol-4-yl)oxy)quinolin-7-yl)-4-methyl piperidin-4-ol] | 133 | 110 |
| c1cc(Oc2cn(C3CC3)nc2C2CCOCC2)c2ccc(-c3cn[nH]c3)cc2n1 [Example 8, 4-((1-cyclopropyl-3-(tetrahydro-2H-pyran-4-yl)-1H-pyrazol-4-yl)oxy)-7-(1H-pyrazol-4-yl)quinoline] | 92 | – |
| CS(=O)(=O)n1cc(-c2ccc3c(Oc4cn(C5CC5)nc4C4CCOCC4)ccnc3c2)cn1 [Example 9, 4-((1-cyclopropyl-3-(tetrahydro-2H-pyran-4-yl)-1H-pyrazol-4-yl)oxy)-7-(1-(methylsulfonyl)-1H-pyrazol-4-yl)quinoline] | 101 | – |
| CS(=O)(=O)CCn1cc(-c2ccc3c(Oc4cn(C5CC5)nc4C4CCOCC4)ccnc3c2)cn1 [Example 10, 4-((1-cyclopropyl-3-(tetrahydro-2H-pyran-4-yl)-1H-pyrazol-4-yl)oxy)-7-(1-(2-(methylsulfonyl)ethyl)-1H-pyrazol-4-yl)quinoline] | 90 | – |
| CC(C)(O)Cn1cc(-c2ccc3c(Oc4cn(C5CC5)nc4C4CCOCC4)ccnc3c2)cn1 [Example 11, 1-(4-(4-((1-cyclopropyl-3-(tetrahydro-2H-pyran-4-yl)-1H-pyrazol-4-yl)oxy)quinolin-7-yl)-1H-pyrazol-1-yl)-2-methylpropan-2-ol] | 96 | – |
| CC(C)n1cc(-c2ccc3c(Oc4cn(C5CC5)nc4C4CCOCC4)ccnc3c2)cn1 [Example 12, 4-((1-cyclopropyl-3-(tetrahydro-2H-pyran-4-yl)-1H-pyrazol-4-yl)oxy)-7-(1-isopropyl-1H-pyrazol-4-yl)quinoline] | 77 | – |
| FC(F)(F)Cn1cc(-c2ccc3c(Oc4cn(C5CC5)nc4C4CCOCC4)ccnc3c2)cn1 [Example 13, 4-((1-cyclopropyl-3-(tetrahydro-2H-pyran-4-yl)-1H-pyrazol-4-yl)oxy)-7-(1-(2,2,2-trifluoroethyl)-1H-pyrazol-4-yl)quinoline] | 81 | – |
| Cn1cc(-c2ccc3c(Oc4cn(C5CC5)nc4-c4ccccc4)ccnc3c2)cn1 [Example 14, 4-((1-cyclopropyl-3-phenyl-1H-pyrazol-4-yl)oxy)-7-(1-methyl-1H-pyrazol-4-yl)quinoline] | 46 | – |
| NS(=O)(=O)c1ccc(-c2ccc3c(Oc4cn(C5CC5)nc4C4CCOCC4)ccnc3c2)cc1 [Example 20, 4-(4-((1-cyclopropyl-3-(tetrahydro-2H-pyran-4-yl)-1H-pyrazol-4-yl)oxy)quinolin-7-yl)benzenesulfonamide] | 75 | – |
| CS(=O)(=O)c1ccc(-c2ccc3c(Oc4cn(C5CC5)nc4C4CCOCC4)ccnc3c2)cn1 [Example 21, 4-((1-cyclopropyl-3-(tetrahydro-2H-pyran-4-yl)-1H-pyrazol-4-yl)oxy)-7-(6-(methylsulfonyl)pyridin-3-yl)quinoline] | 49 | – |
| CS(=O)(=O)N1CC=C(c2ccc3c(Oc4cn(C5CC5)nc4C4CCOCC4)ccnc3c2)CC1 [Example 22, 4-((1-cyclopropyl-3-(tetrahydro-2H-pyran-4-yl)-1H-pyrazol-4-yl)oxy)-7-(1-(methylsulfonyl)-1,2,3,6-tetrahydropyridin-4-yl)quinoline] | 56 | – |
| FC(F)(F)c1nc2n(n1)CCN(c1ccc3c(Oc4cn(C5CC5)nc4C4CCOCC4)ccnc3c1)C2 [Example 23, 4-((1-cyclopropyl-3-(tetrahydro-2H-pyran-4-yl)-1H-pyrazol-4-yl)oxy)-7-(2-(trifluoromethyl)-5,6-dihydro-[1,2,4]triazolo[1,5-a]pyrazin-7(8H)-yl)quinoline] | 200 | – |
